Test results from patent US8673980B2, “Closthioamides, compositions, and methods for treating bacterial or fungal infections or cancer” (Leibniz-Institut fuer Naturstoff-Forschung und …, priority 2009, dated 2014).
Converted amounts (≈) assume the structure as drawn.

Key:
Format in all cases: cell-based
[1] = test system: E. coli, Mycobacterium vaccae, MRSA, VRE; assay: Activity of synthetic closthioamide using 4 bacterial test strains (FIG. 4A)
Text: (§1) FIG. 4. A Activity of synthetic closthioamide (1) using 4 bacterial test strains; from left to right: (1) E. coli, (2) Mycobacterium vaccae, (3) methicillin-resistant Staphylococcus aureus (MRSA), (4) vancomycin-resistant Enterococcus faecalis (VRE). B Ciprofloxacin control.

[2] = Cytotoxicity (data not shown)
[3] = test system: K-562; assay: Antiproliferative activity on K-562 cells; settings: K562; K-562 human erythromyeloblastoid leukemia cells
Protocol: (§2) For the detailed evaluation of its biological profile as anti-cancer agent, cultured human tumor cell lines were treated with the closthioamide 1. In particular, closthioamide 1 was tested for its inhibitory effect on cell growth of different human cell lines.

[4] = test system: Enterococcus faecalis VRE; assay: Standardized antimicrobial assay (agar diffusion test); settings: for antibacterial activity: vancomycin-resistant Enterococcus faecalis
Text: as §1
(§3) For the detailed evaluation of their antimicrobial (antibacterial, antifungal) activity, dosthioamides according to the invention were subjected to standardized antimicrobial assays (Herold et al., Chem. Eur. J., 2005), e.g. agar diffusion test. In particular, closthioamide 1 was tested for its inhibitory effect on cell growth of different bacterial strains and/or fungi. The tested microbes included Bacillus subtilis, Staphylococcus aureus, E. coli, Pseudomonas aeruginosa, Staphylococcus aureus MRSA, Enterococcus faecalis VRE, Mycobacterium vaccae, Sporobolomyces salmonicolor, Candida albicans, and Penicillium notatum.

[5] = test system: Staphylococcus aureus MRSA; assay: as above
Text: as §1, §3

[6] = test system: HeLa; assay: Cytotoxicity on HeLa cells; settings: HeLa human epithelial cervical cancer
Protocol: The major metabolite (1) was isolated from a 5 L culture and purified by sequential open column chromatography and RP-HPLC (FIG. 1), yielding 1.04 mg of a pale yellow compound. […] According to HR-MS measurements, 1 has a molecular formula of C29H38N6O2S6 and appeared to be amazingly rich in sulfur atoms. Furthermore, NMR data disclosed that the molecule is symmetrical: The ^13C NMR and DEPT spectra indicated the presence of six methylene, two methine, and five quaternary carbons. In the ^1H NMR spectrum signals corresponding to two olefinic and six methylene protons were observed (see Table 1).
as §2

[7] = test system: HUVEC; assay: Antiproliferative activity on HUVEC cells; settings: HUVEC human umbilical vein endothelial cells
Protocol: as §2

[8] = test system: Mycobacterium vaccae; assay: Standardized antimicrobial assay (agar diffusion test)
Protocol: as §3

[9] = test system: Bacillus subtilis; assay: as above
Protocol: as §3

[10] = test system: Candida albicans; assay: as above
Protocol: as §3

[11] = test system: Sporobolomyces salmonicolor; assay: as above
Protocol: as §3

[12] = test system: Staphylococcus aureus; assay: as above
Protocol: as §3

[13] = test system: Penicillium notatum; assay: as above
Protocol: as §3

[14] = test system: E. coli; assay: as above
Protocol: as §3

[15] = test system: Pseudomonas aeruginosa; assay: as above
Protocol: as §3

For `Oc1ccc(C(=S)NCCC(=S)NCCC(=S)NCCCNC(=S)CCNC(=S)CCNC(=S)c2ccc(O)cc2)cc1` [closthioamide 1, closthioamide], the “activity of synthetic compound compared with the bacterial metabolite” value [1] was “equivalent to the activity of the bacterial metabolite”, the cytotoxicity [2] was “only moderate cytotoxicity” and the GI50 [3] was 1.5 µg/mL (≈ 2.16 µM). For the same compound, the antimicrobial activity ([4]; Enterococcus faecalis VRE) was “showed activity”, the antibacterial activity ([4]; FIG. 4, synthetic closthioamide) was “highly active” and the antibacterial activity ([4]; preliminary bioactivity profiling, isolated metabolite) was “antibacterial activity”. The antibacterial activity ([5]; FIG. 4, synthetic closthioamide, methicillin-resistant Staphylococcus aureus) was “highly active”, the antimicrobial activity ([5]; Staphylococcus aureus MRSA) was “showed activity” and the antibacterial activity ([5]; preliminary bioactivity profiling, isolated metabolite, methicillin-resistant Staphylococcus aureus (MRSA)) was “antibacterial activity”. The CC50 [6] was 5.1 µg/mL (≈ 7.34 µM), the GI50 [7] was 6.4 µg/mL (≈ 9.21 µM) and the antimicrobial activity [8] was “showed activity”. For the same compound, the antimicrobial activity [9] was “showed activity”, the antimicrobial activity [10] was “showed activity” and the antimicrobial activity [11] was “showed activity”. The antimicrobial activity [12] was “showed activity”, the antimicrobial activity [13] was “showed activity” and the antimicrobial activity [14] was “showed activity”. For the same compound, the antimicrobial activity [15] was “showed activity”.
